From article PMC12040169 (PLOS Biology, 2025)

Assay: in vitro
Conditions: human, hela cells, % viability

SMILES | viability at 28.5 h, 10 µM
CC(CC(=O)O)CC(=O)Nc1ccccc1C(=O)O (stereo not drawn) [CBK265671] | 99.2%
Cc1oc2ccccc2c1CN(CCN(C)C)Cc1ccncc1 [CBK283097] | 87.8%
COc1ccc(CCN2CCC(Oc3cncc(OCC4COc5ccccc5O4)n3)C2)cc1OC (stereo not drawn) [CBK084389] | 112%
Cc1cnc(C)c(N2CCN(C(=O)NCCSc3nncn3C)CC2)n1 [CBK306531] | 92.9%
CCCc1[nH]nc(O)c1CCc1ccc(OC)cc1 [CBK081128] | 102%
CC(C)OCC(O)Cn1c(N/N=C/c2ccccc2O)nc2c1c(=O)[nH]c(=O)n2C (stereo not drawn) [CBK139853] | 101%
Fc1cccc(-c2nccnc2NCC2CC2)c1 [CBK036767] | 94.4%
O=C(c1cc2ncc(CCO)cn2n1)N1CCC(c2ccccc2Cl)C1 (stereo not drawn) [CBK307266] | 105%
COCC(=O)N[C@H]1C[C@H]2C(=O)Nc3ccccc3C(=O)N2C1 [CBK289353] | 91.7%
CC(CNC(=O)COc1cc(Cl)c(Cl)cc1Cl)CN(C)C (stereo not drawn) [CBK266766] | 88.1%
COc1cccc(CNc2nccnc2-c2ccccc2F)c1OC [CBK037993] | 98.1%
CC(C)N1CCC(=NNC(=O)COc2ccc(Cl)cc2Cl)CC1 [CBK262614] | 83.2%
CSCCOc1cncc(N2CCCC2)n1 [CBK115761] | 101%
CC(C)c1ccsc1C(=O)N1CCC2(C1)NC(=O)NC2=O (stereo not drawn) [CBK305188] | 87.1%
O=C(CN1C2CCC1CC(O)(c1ccco1)C2)NCc1ccccc1 (stereo not drawn) [CBK284105] | 94.5%
CC(Sc1nc2ccccc2[nH]1)C(=O)Nc1ccc(S(N)(=O)=O)cc1 (stereo not drawn) [CBK266128] | 114%
O=C(CCCSC1=NC(C(F)(F)F)CC(c2ccco2)N1)Nc1ccc(Cl)c(Cl)c1 (stereo not drawn) [CBK268858] | 88%
CCNC(=O)N(C)c1c(CC)nc2ccc(C(=O)N3CCN(C(C)=O)CC3)cn12 [CBK146362] | 104%
Cc1nc2c(c(=O)[nH]1)CN(Cc1ccc(Cl)cc1)CC2 [CBK282415] | 84.5%
Cc1cnn(CC2CCCCN2CC(=O)NCc2ccccn2)c1 (stereo not drawn) [CBK304041] | 110%
Cc1ccc(C(=O)NCCC(=O)Nc2ccccc2C)cc1 [CBK268569] | 103%
CC(=O)Nc1ccc(CNC(=O)CN(C)Cc2cc(C)on2)cc1 [CBK307042] | 82.4%

SMILES | viability at 28.5 h, 10 µM
Cc1ccccc1SCC(C)C(=O)O (stereo not drawn) [CBK012292] | 83%
C=CCNC(CC(=O)Nc1ccc(C)c(Cl)c1)C(=O)O (stereo not drawn) [CBK266892] | 92.8%
COc1ccc(CCC(=O)NC[C@H]2CC[C@H](c3cc(C(N)=O)c4ccccc4n3)CC2)cc1 [CBK285920] | 91.7%
CSc1nsc(SCC(=O)Nc2ccccc2C#N)n1 [CBK269826] | 95.1%
Cc1ccc(Cc2c(C)nc(N3CCN(Cc4ccccc4)CC3)[nH]c2=O)cc1 [CBK270170] | 115%
CCCC1=NN(c2ccc([N+](=O)[O-])cc2)C(=O)/C1=C/NC1CC(C)(C)NC(C)(C)C1 [CBK262896] | 84.9%
OC(CN1CCN(Cc2ccc3c(c2)OCO3)CC1)C(F)(F)F (stereo not drawn) [CBK074833] | 108%
COc1c(Cl)cc(Cl)cc1CNC(C)(C)CO [CBK270212C] | 102%
COc1ccc(S(=O)(=O)N2CCOCC2)cc1C(=O)Nc1ccc2c(c1)OCO2 [CBK265548] | 102%
Cc1csc(C(Cc2ccsc2)NC(=O)CCc2ccno2)n1 (stereo not drawn) [CBK285099] | 100%
CSCCC(=O)N1CCC2(CCN(Cc3ccccc3)CC2)C1 [CBK136757] | 101%
CC(C)CC1CC(=O)Nc2c1c(=O)[nH]n2C(C)C (stereo not drawn) [CBK287924] | 105%
NC(=O)CSc1nnc(NC(=O)c2ccccc2)s1 [CBK287628] | 92.8%
CCOc1ccccc1NC(=O)CNS(=O)(=O)c1ccccc1 [CBK265860] | 86.9%
O=[N+]([O-])c1cccc(C(Nc2cccnc2)c2cc(Cl)c3cccnc3c2O)c1 (stereo not drawn) [CBK268629] | 93.7%
CCCc1ccc(S(=O)(=O)Nc2cccc(C(=O)OCC)c2)cc1 [CBK034332] | 92.5%
CC(Cc1ccccn1)N(C)C(=O)c1cccc(N2CCCC2=O)c1 (stereo not drawn) [CBK282153] | 104%
CC(=O)N1CCC[C@H]2NC(=O)CNC(=O)C3(C/C=C/C[C@H]21)CCN(CC1CCC1)CC3 [CBK292129] | 103%
CSCc1nc2ccccc2n1CC(=O)N(CCC#N)Cc1ccco1 [CBK305440] | 97.7%
O=C1O[C@@H](CCl)CN1c1ccc(N2CCOCC2)c(F)c1 [CBK017613] | 105%
Cc1cccn2cc(CCNC(=O)N3CCOCC3C3CC3)nc12 (stereo not drawn) [CBK304033] | 104%
N#Cc1ccccc1CSc1ncn[nH]1 [CBK027835] | 95.1%

SMILES | viability at 28.5 h, 10 µM
CS(=O)(=O)c1ccc(-c2cccc(COC3CCN(C(=O)Cc4ccc(C#N)cc4)CC3)c2)cc1 [CBK149513] | 96.3%
CCC(CC)C(=O)Nc1nc(OC)cnc1-c1cccc(C(=O)N(C)C)c1 [CBK145392] | 98.5%
COc1ccc(C2(C(=O)N3CCC(c4ccncc4)CC3)CC2)cc1 [CBK285476] | 111%
c1ccc2c(c1)nc(N1CCOCC1)n2CCN1CCOCC1 [CBK269841] | 99.6%
Cc1noc(C)c1S(=O)(=O)Nc1cccc(C(=O)O)c1 [CBK038902] | 102%
CCc1c(C)nn(-c2ccccc2Cl)c1-c1ccccc1 [CBK016736] | 106%
CC(C)c1ccc(C(C)NC(=O)c2ccc(=O)n(CC(=O)N3CCCCC3)c2)cc1 (stereo not drawn) [CBK286084] | 88.7%
COc1ccc(S(=O)(=O)NC(C)C(=O)NCc2ccncc2)cc1C (stereo not drawn) [CBK269347] | 101%
c1ccc(SCCCN2CCNCC2)cc1 [CBK266067G] | 100%
COc1ccc([C@H](O)[C@@H]2CCCN(C(=O)OC(C)(C)C)C2)cc1 [CBK284311] | 83.4%
O=C(Nc1ccc(Oc2ccccc2)cc1)c1cc([N+](=O)[O-])cc2cn[nH]c12 [CBK293985] | 82.5%
Cc1ccccc1NC(=O)c1cnc2sccn2c1=O [CBK287447] | 74.9%
CC(C)(C)c1ccc(C(=O)N2CCCCC2CO)cc1 (stereo not drawn) [CBK073951] | 86.4%
Cc1csc(NC(=O)c2cccn(Cc3cccc([N+](=O)[O-])c3)c2=O)n1 [CBK294414] | 87.4%
O=c1c2c(-c3ccccc3)ccnc2[nH]n1-c1ccccc1 [CBK287858] | 97%
CC(C)(C)c1cc(CN2CCN(c3ccccn3)CC2)cc(C(C)(C)C)c1O [CBK261520] | 117%
CCOC(=O)c1ccc(N2CC(C(=O)O)CC2=O)cc1 (stereo not drawn) [CBK268106] | 115%
OCCNc1nccnc1-c1ccc2c(c1)OCO2 [CBK088984] | 95%
CCCC/C=C/c1cnc(N)c(Nc2ccc(OC)cc2C)n1 [CBK064090] | 101%
CC(C)(C)c1cc(-n2c(-c3cccnc3)nc3ccccc32)cc(C(C)(C)C)c1O [CBK262907] | 103%
CCOC(=O)C1=C(C)NC(=O)NC1c1ccc(-c2cccc([N+](=O)[O-])c2)o1 (stereo not drawn) [CBK072102] | 109%
O=c1[nH]c2ncc(-c3ccc(OC(F)(F)F)cc3)nc2n1Cc1ccc(Cl)cc1 [CBK064409] | 103%

SMILES | viability at 28.5 h, 10 µM
CC(C)(c1noc(C2CCOCC2)n1)S(=O)(=O)c1ccc(Br)cc1 [CBK305543] | 93.5%
CC(C)NC(=O)Cn1nnc(-c2cccc(C(F)(F)F)c2)n1 [CBK304275] | 95.2%
O=C(C1CCCCC1)N1CCC(c2n[nH]c3ncccc23)CC1 [CBK284905] | 85.7%
CCOC(=O)N1CCN(CC(=O)Nc2cc3c(cc2C(C)=O)OCO3)CC1 [CBK266163] | 99.8%
C=CCNC(=O)N[C@H]1[C@H](O)[C@@H](N(CC)CC)[C@@H]2OC[C@H]1O2 [CBK288817] | 91.1%
COc1cc(CNC(C)(C)CO)ccc1OCc1ccc(Cl)cc1 [CBK266433C] | 92%
OCc1cccc2c3c(n(Cc4ccccc4)c12)CCCC3 [CBK004693] | 91.3%
CN(C)CC(=O)N1CCc2nc(-c3cccc(F)c3)sc2C1 [CBK281801] | 106%
O=C(Cc1ccc(Cl)cc1)Nc1cccc(C(=O)Nc2ccccc2C(=O)O)c1 [CBK264750] | 107%
O=C(Nc1ccc(Cl)cc1)N1CCN(c2ccccc2)CC1 [CBK155188] | 101%
c1coc(-c2cc(Nc3ccc4[nH]ccc4c3)ncn2)c1 [CBK090862] | 95.5%
O=C(c1cnc(-c2ccncc2)s1)N(CC(F)(F)F)C1CCC1 [CBK304119] | 84.1%
COc1cc(NC(=S)NCc2ccc(S(N)(=O)=O)cc2)cc(OC)c1 [CBK264935] | 108%
O=C(NCC1(c2ccccc2F)CCCC1)c1cc[nH]c(=O)c1 [CBK281378] | 112%
c1ccc(Sc2cccc3ccccc23)nc1 [CBK085856] | 91.8%
Cc1nc2ccc(C(=O)NC3=NC(=O)CS3)cn2c1N(C)Cc1cccs1 [CBK146110] | 86.3%
Cc1nc2cc(C(=O)N3CCC(c4ccccc4)C3)ccc2n1C (stereo not drawn) [CBK281841] | 66.5%
Cc1csc(C(Cc2ccsc2)NC(=O)CN2CCCC2=O)n1 (stereo not drawn) [CBK285046] | 81.9%
CC1CCc2n[nH]c(C(=O)N(C)CCc3ccncc3)c2C1 (stereo not drawn) [CBK283195] | 99.5%
COc1ccc(OC)c(-c2cc(C(=O)O)c(C)s2)c1 [CBK049922] | 96.5%
COc1ccc(/C(N)=N/OC(=O)Cc2ccc(Cl)cc2)cc1OC [CBK263272] | 93.2%
CCn1c(CC2CCN(C(=O)CCn3nnnc3C)CC2)nn(C)c1=O [CBK307400] | 104%

Same assay, conditions: human, hela cells, % viability, bulk resorufin, single well

SMILES | viability at 28.5 h, 10 µM
O=[N+]([O-])c1ccc(OC/C=C2\Oc3ccc([N+](=O)[O-])cc3C2N2CCOCC2)cc1 (stereo not drawn) [CBK262743] | 91.8%
CCOC(=O)C1(c2ccccc2)CCN(C(=O)CCSC)CC1 [CBK132184] | 113%
